Data from ChEMBL document CHEMBL3046397, “Synthesis and Insecticidal Activity of 4-1, 2, 4-Thiadiazolin-3-ones” (J Pestic Sci, 1994).

Key:
Spodoptera litura [1] = test: Ovicidal activity against […] Spodoptera litura in paraffin paper assessed as egg mortality at 0.5 ppm at 25 degC, 65% RH measured after 7 days by egg dipping method; assay type: functional; conditions: 168 h
Spodoptera litura [2] = test: Insecticidal activity against third-instar larvae of Spodoptera litura in compound treated sweet potato leaves assessed as mortality at 0.1 ppm at 25 degC, 65% RH measured after 5 days by leaf dipping method; assay type: functional; conditions: foliar, 120 h
Mythimna separata [3] = test: Insecticidal activity against third-instar larvae Mythimna separata (Oriental armyworm) in compound treated maize leaves assessed as mortality at 0.1 ppm at 25 degC, 65% RH measured after 5 days by leaf dipping method; assay type: functional; conditions: foliar, 120 h
Spodoptera litura [4] = test: Ovicidal activity against […] Spodoptera litura in paraffin paper assessed as egg mortality at 8 to 16 ppm at 25 degC, 65% RH measured after 7 days by egg dipping method; assay type: functional
Spodoptera litura [5] = test: Insecticidal activity against third-instar larvae of Spodoptera litura in compound treated sweet potato leaves assessed as mortality at 0.25 to 1 ppm at 25 degC, 65% RH measured after 5 days by leaf dipping method; assay type: functional
Spodoptera litura [6] = test: Ovicidal activity against […] Spodoptera litura in paraffin paper assessed as egg mortality at 31 to 125 ppm at 25 degC, 65% RH measured after 7 days by egg dipping method; assay type: functional
Spodoptera litura [7] = test: Ovicidal activity against […] Spodoptera litura in paraffin paper assessed as egg mortality at 125 ppm at 25 degC, 65% RH measured after 7 days by egg dipping method; assay type: functional; conditions: 168 h
Spodoptera litura [8] = test: Ovicidal activity against […] Spodoptera litura in paraffin paper assessed as egg mortality at 1 to 4 ppm at 25 degC, 65% RH measured after 7 days by egg dipping method; assay type: functional
Spodoptera litura [9] = test: Insecticidal activity against third-instar larvae of Spodoptera litura in compound treated sweet potato leaves assessed as mortality at 2 to 4 ppm at 25 degC, 65% RH measured after 5 days by leaf dipping method; assay type: functional
Mythimna separata [10] = test: Insecticidal activity against third-instar larvae Mythimna separata (Oriental armyworm) in compound treated maize leaves assessed as mortality at 0.25 to 1 ppm at 25 degC, 65% RH measured after 5 days by leaf dipping method; assay type: functional
Spodoptera litura [11] = test: Insecticidal activity against third-instar larvae of Spodoptera litura in compound treated sweet potato leaves assessed as mortality at 31 ppm at 25 degC, 65% RH measured after 5 days by leaf dipping method; assay type: functional; conditions: foliar, 120 h
Mythimna separata [12] = test: Insecticidal activity against third-instar larvae Mythimna separata (Oriental armyworm) in compound treated maize leaves assessed as mortality at 2 to 4 ppm at 25 degC, 65% RH measured after 5 days by leaf dipping method; assay type: functional
Mythimna separata [13] = test: Insecticidal activity against third-instar larvae Mythimna separata (Oriental armyworm) in compound treated maize leaves assessed as mortality at 8 to 31 ppm at 25 degC, 65% RH measured after 5 days by leaf dipping method; assay type: functional
Spodoptera litura [14] = test: Insecticidal activity against third-instar larvae of Spodoptera litura in compound treated sweet potato leaves assessed as mortality at 8 to 31 ppm at 25 degC, 65% RH measured after 5 days by leaf dipping method; assay type: functional
Mythimna separata [15] = test: Insecticidal activity against third-instar larvae Mythimna separata (Oriental armyworm) in compound treated maize leaves assessed as mortality at 31 ppm at 25 degC, 65% RH measured after 5 days by leaf dipping method; assay type: functional; conditions: foliar, 120 h
[16] = Metabolic stability in Spodoptera litura larvae feaces; assay type: ADME, organism-based; conditions: faeces, read-out: Drug recovery
[17] = Stability of the compound under natural condition at 25 degC for 24 hr; assay type: physicochemical
Spodoptera litura [18] = test: Metabolic stability in homogenized Spodoptera litura larvae; assay type: ADME, organism-based; conditions: in vivo

Compound | mortality at 0.1 ppm (Mythimna separata [3]) [%] | mortality (Spodoptera litura [4]) [%] | mortality at 125 ppm (Spodoptera litura [7]) [%] | mortality at 31 ppm (Spodoptera litura [11]) [%] | further results
O=C(NC(=O)c1c(F)cccc1F)Nc1cc(F)c(OC(F)(F)F)cc1F | > 90 |  |  |  | mortality at 0.5 ppm (Spodoptera litura [1]): > 90%; mortality at 0.1 ppm (Spodoptera litura [2]): > 90%
O=c1nc(-c2c(F)cccc2F)sn1-c1cc(F)c(OC(F)(F)F)cc1F | > 90 | >90 |  |  | mortality (Spodoptera litura [5]): >90%
O=c1nc(-c2c(F)cccc2F)sn1-c1ccc(OC(F)(F)F)c(F)c1Cl | > 90 |  |  |  | mortality (Spodoptera litura [6]): >90%; mortality at 0.1 ppm (Spodoptera litura [2]): > 90%
O=c1nc(-c2c(F)cccc2F)sn1-c1ccc(OC(F)(F)F)c(Cl)c1F | > 90 |  | < 90 |  | mortality (Spodoptera litura [5]): >90%
O=c1nc(-c2c(F)cccc2F)sn1-c1cc(Cl)c(OC(F)(F)F)cc1F | > 90 |  |  |  | mortality (Spodoptera litura [8]): >90%; mortality (Spodoptera litura [9]): >90%
O=c1nc(-c2c(F)cccc2F)sn1-c1cc(F)c(OC(F)(F)F)cc1Cl |  | >90 |  |  | mortality at 0.1 ppm (Spodoptera litura [2]): > 90%; mortality (Mythimna separata [10]): >90%
Cc1c(OC(F)(F)F)ccc(-n2sc(-c3c(F)cccc3F)nc2=O)c1F | > 90 | >90 |  |  | mortality (Spodoptera litura [5]): >90%
O=c1nc(-c2c(F)cccc2F)on1-c1ccc(Cl)cc1 |  |  | < 90 |  | mortality (Mythimna separata [10]): >90%
O=c1nc(-c2c(Cl)cccc2Cl)on1-c1ccc(Cl)cc1 |  |  | < 90 | < 90 | mortality (Mythimna separata [12]): >90%
O=c1nc(-c2c(F)cccc2F)on1-c1ccc(OC(F)(F)F)cc1 |  | >90 |  | < 90 | mortality (Mythimna separata [12]): >90%
O=c1nc(-c2ccccc2Cl)on1-c1ccc(OC(F)(F)F)cc1 |  |  | < 90 | < 90 | mortality (Mythimna separata [10]): >90%
Cc1ccccc1-c1nc(=O)n(-c2ccc(OC(F)(F)F)cc2)o1 |  | >90 |  | < 90 | mortality (Mythimna separata [13]): >90%
O=c1nc(-c2c(F)cccc2F)on1-c1ccc(C(F)(F)F)cc1 |  |  |  | < 90 | mortality (Mythimna separata [10]): >90%
O=c1nc(-c2c(F)cccc2F)on1-c1ccc(OC(F)(F)F)c(Cl)c1 | > 90 |  | < 90 |  | mortality (Spodoptera litura [9]): >90%
O=C(NC(=O)c1c(F)cccc1F)Nc1ccc(OC(F)(F)F)c(F)c1F | > 90 |  |  |  | mortality at 0.5 ppm (Spodoptera litura [1]): > 90%; mortality at 0.1 ppm (Spodoptera litura [2]): > 90%
O=c1nc(-c2ccccc2Br)sn1-c1ccc(OC(F)(F)F)cc1 |  | >90 |  |  | mortality (Spodoptera litura [14]): >90%; mortality (Mythimna separata [13]): >90%
O=c1nc(-c2ccccc2C(F)(F)F)sn1-c1ccc(OC(F)(F)F)cc1 |  |  | < 90 | < 90 | mortality at 31 ppm (Mythimna separata [15]): < 90%
O=c1nc(-c2c(Cl)cccc2Cl)sn1-c1ccc(OC(F)(F)F)cc1 |  |  | < 90 | < 90 | mortality (Mythimna separata [12]): >90%
O=c1nc(-c2c(F)cccc2Cl)sn1-c1ccc(OC(F)(F)F)cc1 |  | >90 |  |  | mortality (Mythimna separata [10]): >90%
O=c1nc(-c2c(F)cccc2F)sn1-c1cc(Cl)c(F)c(Cl)c1F |  | >90 |  | < 90 | mortality at 31 ppm (Mythimna separata [15]): < 90%
O=c1nc(-c2c(F)cccc2F)sn1-c1cc(Cl)c(Oc2ncc(C(F)(F)F)cc2Cl)c(Cl)c1 |  |  | < 90 | < 90 | mortality (Mythimna separata [10]): >90%
O=c1nc(-c2c(F)cccc2F)sn1-c1ccc(OC(F)(F)F)cc1Cl |  |  |  |  | mortality (Spodoptera litura [8]): >90%; mortality (Spodoptera litura [9]): >90%; mortality (Mythimna separata [13]): >90%

Compound | mortality at 0.1 ppm (Mythimna separata [3]) [%] | mortality (Spodoptera litura [4]) [%] | mortality at 125 ppm (Spodoptera litura [7]) [%] | mortality at 31 ppm (Spodoptera litura [11]) [%] | further results
O=c1nc(-c2c(F)cccc2F)sn1-c1ccc(OC(F)(F)F)c(Cl)c1 | > 90 |  |  | < 90 | mortality (Spodoptera litura [6]): >90%
Cc1cc(OC(F)(F)F)ccc1-n1sc(-c2c(F)cccc2F)nc1=O | > 90 |  |  |  | mortality (Spodoptera litura [6]): >90%; mortality (Spodoptera litura [14]): >90%
Cc1cc(-n2sc(-c3c(F)cccc3F)nc2=O)ccc1OC(F)(F)F | > 90 |  |  |  | mortality (Spodoptera litura [6]): >90%; mortality (Spodoptera litura [9]): >90%
O=c1nc(-c2c(F)cccc2F)sn1-c1ccc(OC(F)(F)F)cc1F | > 90 | >90 |  |  | mortality (Spodoptera litura [5]): >90%
O=c1nc(-c2c(F)cccc2F)sn1-c1ccc(OC(F)(F)F)c(F)c1 |  | >90 |  |  | mortality (Spodoptera litura [9]): >90%; mortality (Mythimna separata [10]): >90%
O=c1nc(-c2c(F)cccc2F)sn1-c1ccc(OC(F)(F)F)c(Cl)c1Cl |  |  | < 90 |  | mortality (Spodoptera litura [5]): >90%; mortality (Mythimna separata [10]): >90%
O=c1nc(-c2c(F)cccc2F)sn1-c1cc(Cl)c(OC(F)(F)F)cc1Cl |  |  | < 90 |  | mortality (Spodoptera litura [9]): >90%; mortality (Mythimna separata [10]): >90%
Cc1c(OC(F)(F)F)ccc(-n2sc(-c3c(F)cccc3F)nc2=O)c1C | > 90 |  | < 90 |  | mortality (Spodoptera litura [5]): >90%
Cc1cc(-n2sc(-c3c(F)cccc3F)nc2=O)c(C)cc1OC(F)(F)F | > 90 |  | < 90 |  | mortality (Spodoptera litura [9]): >90%
Cc1cc(-n2sc(-c3c(F)cccc3F)nc2=O)cc(C)c1OC(F)(F)F |  |  | < 90 |  | mortality (Spodoptera litura [9]): >90%; mortality (Mythimna separata [10]): >90%
O=c1nc(-c2c(F)cccc2F)sn1-c1ccc(OC(F)(F)F)c(F)c1F | > 90 | >90 |  |  | mortality at 0.1 ppm (Spodoptera litura [2]): > 90%
O=c1nc(-c2c(Cl)cccc2Cl)sn1-c1ccc(Cl)cc1 |  |  | < 90 | < 90 | mortality (Mythimna separata [13]): >90%
O=c1nc(-c2ccccc2Cl)sn1-c1ccc(Cl)cc1 |  |  | < 90 |  | mortality at 31 ppm (Mythimna separata [15]): < 90%
O=c1nc(-c2c(F)cccc2F)sn1-c1ccc(Cl)cc1 |  |  | < 90 | < 90 | mortality (Mythimna separata [10]): >90%
O=c1nc(-c2c(F)cccc2F)sn1-c1ccc(C(F)(F)F)cc1 | > 90 | >90 |  | < 90 | 
O=c1nc(-c2c(F)cccc2F)sn1-c1ccc(OC(F)(F)F)cc1 | > 90 | >90 |  |  | mortality (Spodoptera litura [14]): >90%
Cc1ccccc1-c1nc(=O)n(-c2ccc(OC(F)(F)F)cc2)s1 |  | >90 |  | < 90 | mortality (Mythimna separata [12]): >90%
O=c1nc(-c2ccccc2F)sn1-c1ccc(OC(F)(F)F)cc1 |  | >90 |  |  | mortality (Spodoptera litura [14]): >90%; mortality (Mythimna separata [12]): >90%
O=c1nc(-c2ccccc2Cl)sn1-c1ccc(OC(F)(F)F)cc1 |  |  |  |  | dose excreted [16]: 3.5%; Stability [17]: Stable; Drug recovery (Spodoptera litura [18]): 10.4%; mortality (Spodoptera litura [8]): >90%; mortality (Spodoptera litura [14]): >90%; mortality (Mythimna separata [10]): >90%
O=C(NC(=O)c1c(F)cccc1F)Nc1ccc(Cl)cc1 [DIFLUBENZURON] | > 90 |  |  | < 90 | mortality (Spodoptera litura [8]): >90%
O=C(NC(=O)c1ccccc1Cl)Nc1ccc(OC(F)(F)F)cc1 [TRIFLUMURON] | > 90 |  |  |  | mortality at 0.5 ppm (Spodoptera litura [1]): > 90%; mortality (Spodoptera litura [14]): >90%
